Data: US7163946B2 (Ligand Pharmaceuticals Incorporated, priority 2002, dated 2007)
Like-named read-outs stand apart in the source and are kept apart here.

What was measured:
hPR-A = biological target: T1, hPR-A (Homo sapiens, UniProt P06401); assay: Receptor competitive binding assay; details: read-out: PR binding Ki
T1 sequence (P06401 1-769 isoform P06401-2): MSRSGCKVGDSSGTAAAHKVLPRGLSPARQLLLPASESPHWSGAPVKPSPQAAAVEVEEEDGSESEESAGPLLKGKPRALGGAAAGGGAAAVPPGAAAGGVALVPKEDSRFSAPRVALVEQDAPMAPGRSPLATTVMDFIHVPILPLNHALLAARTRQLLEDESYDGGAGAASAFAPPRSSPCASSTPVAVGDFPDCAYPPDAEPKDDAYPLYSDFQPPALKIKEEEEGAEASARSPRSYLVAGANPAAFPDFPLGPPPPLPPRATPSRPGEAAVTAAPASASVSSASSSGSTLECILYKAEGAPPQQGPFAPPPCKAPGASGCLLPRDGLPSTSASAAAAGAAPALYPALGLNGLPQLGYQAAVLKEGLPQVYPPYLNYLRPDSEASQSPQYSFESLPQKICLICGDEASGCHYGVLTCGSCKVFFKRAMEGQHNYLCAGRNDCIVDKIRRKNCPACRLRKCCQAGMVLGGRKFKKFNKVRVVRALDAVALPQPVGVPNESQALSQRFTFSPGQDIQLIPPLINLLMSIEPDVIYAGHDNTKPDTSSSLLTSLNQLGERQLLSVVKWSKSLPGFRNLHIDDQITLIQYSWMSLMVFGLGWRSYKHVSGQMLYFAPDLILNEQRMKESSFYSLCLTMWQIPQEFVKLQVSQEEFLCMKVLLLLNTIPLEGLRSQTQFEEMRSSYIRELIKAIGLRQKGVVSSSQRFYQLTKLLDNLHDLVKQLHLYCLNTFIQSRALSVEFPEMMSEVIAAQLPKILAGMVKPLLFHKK

[1] = biological target: T2, human androgen receptor (hAR) (Homo sapiens, UniProt P10275); assay: hAR cotransfection assay (potency ratio to hPR); assay type: cell-based; details: receptor-selectivity potency ratio, cotransfection assays
T2 sequence (P10275 1-920): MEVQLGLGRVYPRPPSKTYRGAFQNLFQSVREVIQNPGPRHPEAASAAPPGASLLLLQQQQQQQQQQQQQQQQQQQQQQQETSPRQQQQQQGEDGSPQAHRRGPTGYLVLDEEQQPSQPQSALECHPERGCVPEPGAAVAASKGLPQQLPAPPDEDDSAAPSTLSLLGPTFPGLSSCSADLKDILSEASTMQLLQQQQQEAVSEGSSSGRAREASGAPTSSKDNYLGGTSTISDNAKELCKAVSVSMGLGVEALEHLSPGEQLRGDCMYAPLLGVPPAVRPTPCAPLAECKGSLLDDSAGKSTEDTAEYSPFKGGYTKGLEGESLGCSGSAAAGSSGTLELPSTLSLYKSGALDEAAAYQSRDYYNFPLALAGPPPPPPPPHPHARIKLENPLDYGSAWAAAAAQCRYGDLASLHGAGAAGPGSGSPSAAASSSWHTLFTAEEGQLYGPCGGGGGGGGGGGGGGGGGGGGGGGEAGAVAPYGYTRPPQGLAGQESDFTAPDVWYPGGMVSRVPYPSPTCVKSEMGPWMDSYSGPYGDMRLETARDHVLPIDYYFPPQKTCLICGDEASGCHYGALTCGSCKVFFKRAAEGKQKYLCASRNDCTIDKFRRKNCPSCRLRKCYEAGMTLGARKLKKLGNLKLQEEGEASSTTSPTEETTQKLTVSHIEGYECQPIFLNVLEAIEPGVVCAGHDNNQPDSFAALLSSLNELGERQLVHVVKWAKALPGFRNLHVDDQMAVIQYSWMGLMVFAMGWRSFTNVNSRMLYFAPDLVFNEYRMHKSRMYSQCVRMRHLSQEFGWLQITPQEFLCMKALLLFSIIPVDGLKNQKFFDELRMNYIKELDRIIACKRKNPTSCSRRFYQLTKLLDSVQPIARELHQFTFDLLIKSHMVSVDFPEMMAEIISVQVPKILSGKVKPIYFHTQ
Procedure: (§1) Antagonist efficacy was determined as a function (%) of maximal inhibition of a reference agonist at EC50 concentration. All the cotransfection experiments were carried out in 96-well plates by automation (Beckman Biomomek automated workstation).

hPR [2] = biological target: T3, hPR (Homo sapiens, UniProt P06401); assay: hPR cotransfection assay in CV-1 cells, agonist mode; assay type: cell-based; details: for Emax: CV-1, CV-1 cells, relative to maximal response of progesterone as 100%, read-out: hPR Agonist CV-1 Cells Eff. (%)
T3 sequence (P06401 1-933): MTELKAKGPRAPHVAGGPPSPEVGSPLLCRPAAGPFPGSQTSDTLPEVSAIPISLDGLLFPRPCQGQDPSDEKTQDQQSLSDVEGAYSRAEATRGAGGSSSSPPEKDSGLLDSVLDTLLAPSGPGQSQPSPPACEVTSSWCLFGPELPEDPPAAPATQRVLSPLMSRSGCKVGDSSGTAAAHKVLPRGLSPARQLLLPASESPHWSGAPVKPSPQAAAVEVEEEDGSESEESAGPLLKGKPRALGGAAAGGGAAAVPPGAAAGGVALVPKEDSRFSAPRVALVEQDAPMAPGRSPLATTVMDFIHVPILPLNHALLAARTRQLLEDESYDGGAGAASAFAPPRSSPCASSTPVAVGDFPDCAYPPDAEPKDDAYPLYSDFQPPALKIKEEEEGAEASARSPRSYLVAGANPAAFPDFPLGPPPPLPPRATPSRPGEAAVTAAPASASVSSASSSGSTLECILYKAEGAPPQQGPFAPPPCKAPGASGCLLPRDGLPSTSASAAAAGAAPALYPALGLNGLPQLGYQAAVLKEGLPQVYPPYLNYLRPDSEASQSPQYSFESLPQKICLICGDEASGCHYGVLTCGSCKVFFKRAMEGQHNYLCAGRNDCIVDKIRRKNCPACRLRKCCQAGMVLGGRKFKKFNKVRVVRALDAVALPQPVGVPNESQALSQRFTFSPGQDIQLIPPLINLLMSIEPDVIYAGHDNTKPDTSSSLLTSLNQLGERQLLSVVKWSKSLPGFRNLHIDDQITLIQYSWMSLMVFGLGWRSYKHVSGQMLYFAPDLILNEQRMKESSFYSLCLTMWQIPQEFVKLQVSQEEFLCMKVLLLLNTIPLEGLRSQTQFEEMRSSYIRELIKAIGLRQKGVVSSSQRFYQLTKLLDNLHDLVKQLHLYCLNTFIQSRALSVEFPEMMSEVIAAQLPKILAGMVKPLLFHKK
Procedure: as §1

hPR [3] = biological target: T4, hPR (Homo sapiens, UniProt P06401); assay: T47D alkaline phosphatase assay, antagonist mode; assay type: cell-based; details: T47D human breast cancer cells; for Emax: read-out: hPR Antagonists T47D Cells Eff. (%); for IC50: read-out: hPR Antagonists T47D Cells IC50
T4 sequence (P06401 679-933 limits assumed): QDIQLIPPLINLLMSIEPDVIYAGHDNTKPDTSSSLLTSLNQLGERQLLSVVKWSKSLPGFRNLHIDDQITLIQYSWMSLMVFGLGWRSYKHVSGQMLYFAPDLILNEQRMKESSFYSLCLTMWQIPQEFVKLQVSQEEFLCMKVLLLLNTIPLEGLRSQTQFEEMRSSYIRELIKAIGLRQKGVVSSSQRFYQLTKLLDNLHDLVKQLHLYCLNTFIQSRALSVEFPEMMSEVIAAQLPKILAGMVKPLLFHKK
Source text: The potential tissue-selectivities of the selected analogues were examined by using the T47D alkaline phosphatase assay that was developed from human breast cancer cells with endogenous PRs.

[4] = CV-1 cells, read-out: hPR Agonist CV-1 Cells EC50
[5] = Tables 3 and 4, values without footnote, read-out: hPR agonist potencies (EC50 in nM) in the cotransfection assay

SMILES | Ki (hPR-A) | hAR EC50 or IC50/hPR EC50 [1] | Emax (hPR [2]) | EC50 (hPR [2]; [4]) | EC50 (hPR [2]; [5]) | Emax (hPR [3]) | IC50 (hPR [3])
COc1ccccc1/C=C1\Oc2c(F)cc(F)cc2-c2ccc3c(c21)C(C)=CC(C)(C)N3 [Compound 18, 7,9-difluoro-5(Z)-(2-methoxybenzylidene)-1,2-dihydro-2,2,4-trimethyl-5H-chromeno[3,4-f]quinoline] | 3.9 nM | 170 | 142% | 1.3 nM | 1.3 nM | 58% | 55 nM
CC1=CC(C)(C)Nc2ccc3c(c21)C(c1cccc(C)c1)Oc1c(F)cc(F)cc1-3 (racemic) [Compound 34, (±)-7,9-difluoro-5-(3-methylphenyl)-1,2-dihydro-2,2,4-trimethyl-5H-chromeno[3,4-f]quinoline] | 2.5 nM | 8.5 | 114% | 1.2 nM | 1.2 nM | 47% | 565 nM
CC1=CC(C)(C)Nc2ccc3c(c21)C(c1ccc(Cl)c(C)c1)Oc1c(F)cc(F)cc1-3 (racemic) [Compound 37, (±)-7,9-difluoro-5-(4-chloro-3-methylphenyl)-1,2-dihydro-2,2,4-trimethyl-5H-chromeno[3,4-f]quinoline] | 2.2 nM | 558 | 89% | 1.24 nM | 1.24 nM | 56% | 150 nM
CC1=CC(C)(C)Nc2ccc3c(c21)/C(=C/c1cccc(F)c1)Oc1c(F)cc(F)cc1-3 [Compound 15, 7,9-difluoro-5(Z)-(3-fluorobenzylidene)-1,2-dihydro-2,2,4-trimethyl-5H-chromeno[3,4-f]quinoline] | 9.7 nM | 2 | 191% | 3.8 nM | 3.8 nM | 52% | 711 nM
CC1=CC(C)(C)Nc2ccc3c(c21)/C(=C/c1cccs1)Oc1c(F)cc(F)cc1-3 [Compound 31, 7,9-difluoro-5(Z)-(2-thienylmethylidene)-1,2-dihydro-2,2,4-trimethyl-5H-chromeno[3,4-f]quinoline] | 7.9 nM | 517 | 171% | 2.7 nM | 2.7 nM | 39% | 610 nM
